Assay results: ChEMBL document CHEMBL6103592, “Discovery of novel thiazole-pleuromutilin derivatives with potent antibacterial activity” (Eur J Med Chem, 2025)
Converted amounts (≈) assume the structure as drawn. The source made the active and inactive calls. The rule behind the calls is not given here.

How the values were obtained:
Staphylococcus aureus [1] = experiment: Antibacterial activity against Staphylococcus aureus ATCC 25923 assessed as inhibition of visible bacterial growth incubated for 24 hrs by CLSI based broth microdilution method; assay type: functional
Escherichia coli = experiment: Antibacterial activity against Escherichia coli ATCC 25922 assessed as inhibition of visible bacterial growth incubated for 24 hrs by CLSI based broth microdilution method; assay type: functional
Staphylococcus aureus [2] = experiment: Bactericidal activity against methicillin-resistant Staphylococcus aureus ATCC 43300 assessed as increase in colony forming unit count at 1 times MIC incubated after 8 hrs by time-kill assay; assay type: functional, organism-based
Staphylococcus aureus [3] = experiment: Bactericidal activity against methicillin-resistant Staphylococcus aureus ATCC 43300 assessed as log reduction in bacterial count count at 6 times MIC incubated at 24 hrs by time-kill assay; assay type: functional
Staphylococcus aureus [4] = experiment: Antibacterial activity against methicillin-resistant Staphylococcus aureus ATCC 43300 assessed as post antibiotic effect at 2 times MIC measured after 1 hr; assay type: functional
Staphylococcus aureus [5] = experiment: Antibacterial activity against methicillin-resistant Staphylococcus aureus ATCC 43300 assessed as post antibiotic effect at 4 times MIC measured after 1 hr; assay type: functional
Staphylococcus aureus [6] = experiment: Antibacterial activity against methicillin-resistant Staphylococcus aureus ATCC 43300 assessed as post antibiotic effect at 8 times MIC measured after 1 hr; assay type: functional
Staphylococcus aureus [7] = experiment: Antibacterial activity against methicillin-resistant Staphylococcus aureus ATCC 43300 assessed as reduction in bacterial proteins level at 0.5 to 2 microg/ml measured for 4 hrs; assay type: functional, organism-based; conditions: dose 0.5-2 µg/ml
Staphylococcus aureus [8] = experiment: (§1) Antibacterial efficacy against methicillin-resistant Staphylococcus aureus ATCC 43300 infected in cyclophosphamide-induced neutropenic systemic infection Kunming mouse model assessed as reduction in bacterial load in kidney at 20 mg/kg, iv pretreated with cyclophosphamide for 1 hr followed by compound addition and measured after 5 days; assay type: functional, organism-based; conditions: time 5.0 day
Staphylococcus aureus [9] = experiment: as §1, with “inflammatory cell infiltration” for “reduction”, “lung” for “bacterial load in kidney”, “days by light microscopic analysis” for “days”; assay type: functional, organism-based; conditions: time 5.0 day
HepG2 = experiment: Cytotoxicity against human HepG2 cells assessed as cell viability at 200 micromol/L incubated for 24 hrs by CCK-8 assay relative to control; assay type: functional; conditions: HepG2, 24 h, dose 200 µmol/L, read-out: Activity
[10] = Cytotoxicity against human HEK293T cells assessed as cell viability incubated for 24 hrs by CCK-8 assay; assay type: toxicity, cell-based, HEK-293T
[11] = Acute toxicity in rat assessed as tremors at 2000 mg/kg, po measured for 14 days; assay type: organism-based; conditions: in vivo, 336 h, time 14 day
[12] = Acute toxicity in rat assessed as reduction in water consumption at 2000 mg/kg, po measured for 14 days; assay type: organism-based; conditions: in vivo, 336 h, time 14 day
[13] = Acute toxicity in rat assessed as reduction in water consumption at 2000 mg/kg, po measured at 24 hrs; assay type: organism-based; conditions: in vivo
[14] = Acute toxicity in rat assessed as body weight change at 2000 mg/kg, po measured at 24 hrs; assay type: organism-based; conditions: in vivo
[15] = Acute toxicity in rat assessed as pathological changes in heart at 2000 mg/kg, po measured for 14 days; assay type: organism-based; conditions: in vivo, 336 h, time 14 day
[16] = Acute toxicity in rat assessed as pathological changes in liver at 2000 mg/kg, po measured for 14 days; assay type: organism-based; conditions: in vivo, 336 h, time 14 day
[17] = Acute toxicity in rat assessed as pathological changes in spleen at 2000 mg/kg, po measured for 14 days; assay type: organism-based; conditions: in vivo, 336 h, time 14 day
[18] = Acute toxicity in rat assessed as pathological changes in kidney at 2000 mg/kg, po measured for 14 days; assay type: organism-based; conditions: in vivo, 336 h, time 14 day
[19] = Acute toxicity in rat assessed as necrosis of epithelial cells at 2000 mg/kg, po measured for 14 days by H and E staining based analysis; assay type: organism-based; conditions: in vivo, 336 h, time 14 day
[20] = Acute toxicity in rat assessed as absolute uterus weight at 2000 mg/kg, po measured for 7 days (reference value: 0.52 +/- 0.18 g); assay type: organism-based; conditions: in vivo, 168 h, time 7 day
[21] = Acute toxicity in rat assessed as absolute heart weight at 2000 mg/kg, po administered for 7 days followed by readministration after 7 days and measured at 14 days (reference value: 0.77 +/- 0.12 g); assay type: organism-based; conditions: in vivo, 336 h, time 14 day
[22] = Acute toxicity in rat assessed as absolute liver weight at 2000 mg/kg, po administered for 7 days followed by readministration after 7 days and measured at 14 days (reference value: 8.43 +/- 0.43 g); assay type: organism-based; conditions: in vivo, 336 h, time 14 day
[23] = Acute toxicity in rat assessed as absolute lung weight at 2000 mg/kg, po administered for 7 days followed by readministration after 7 days and measured at 14 days (reference value: 1.12 +/- 0.07 g); assay type: organism-based; conditions: in vivo, 336 h, time 14 day
[24] = Acute toxicity in rat assessed as absolute uterus weight at 2000 mg/kg, po administered for 7 days followed by readministration after 7 days and measured at 14 days (reference value: 0.52 +/- 0.18 g); assay type: organism-based; conditions: in vivo, 336 h, time 14 day
[25] = Acute toxicity in rat assessed as relative liver weight at 2000 mg/kg, po measured for 7 days (reference value: 4.36 +/- 0.23 %); assay type: organism-based; conditions: in vivo, 168 h, time 7 day
[26] = Acute toxicity in rat assessed as relative spleen weight at 2000 mg/kg, po administered for 7 days followed by readministration after 7 days and measured at 14 days (reference value: 0.27 +/- 0.02 %); assay type: organism-based; conditions: in vivo, 336 h, time 14 day

Question: For C=C[C@]1(C)C[C@@H](OC(=O)CSc2nc(OC(=O)c3ccc(C(C)(C)C)cc3)cs2)[C@]2(C)[C@H](C)CC[C@]3(CCC(=O)[C@H]32)[C@@H](C)[C@@H]1O, which MIC (Staphylococcus aureus [1]) is on record?
Answer: 0.25 µg/mL (≈ 0.382 µM)

Question: What about the MIC (Escherichia coli) of the same compound?
Answer: > 32 µg/mL

Question: And the Activity (Staphylococcus aureus [2])?
Answer: Active

Question: What about the “log(activity)” value (Staphylococcus aureus [3]) of the same compound?
Answer: 3.08

Question: What about the PAE (Staphylococcus aureus [4]) of the same compound?
Answer: 1.09 h

Question: And the PAE (Staphylococcus aureus [5])?
Answer: 1.85 h

Question: What about the PAE (Staphylococcus aureus [6]) of the same compound?
Answer: 2.27 h

Question: What about the Activity (Staphylococcus aureus [7]) of the same compound?
Answer: Active

Question: And the Activity (Staphylococcus aureus [8])?
Answer: inactive

Question: What about the Activity (Staphylococcus aureus [9]) of the same compound?
Answer: Active

Question: And the viability at 200 µM (HepG2)?
Answer: 94.3%

Question: What about the IC50 at 24 h [10] of the same compound?
Answer: > 200 µM

Question: What about the Activity [11] of the same compound?
Answer: Non-toxic

Question: And the Activity [12]?
Answer: Toxic

Question: What about the Activity [13] of the same compound?
Answer: Non-toxic

Question: What about the Activity [14] of the same compound?
Answer: Non-toxic

Question: And the Activity [15]?
Answer: Non-toxic

Question: What about the Activity [16] of the same compound?
Answer: Non-toxic

Question: What about the Activity [17] of the same compound?
Answer: Non-toxic

Question: What about the Activity [18] of the same compound?
Answer: Non-toxic

Question: What about the Activity [19] of the same compound?
Answer: Non-toxic

Question: What about the Activity [20] of the same compound?
Answer: 0.52 g

Question: And the Activity [21]?
Answer: 0.78 g

Question: What about the Activity [22] of the same compound?
Answer: 8.57 g

Question: What about the Activity [23] of the same compound?
Answer: 1.28 g

Question: And the Activity [24]?
Answer: 0.5 g

Question: And the Activity [25]?
Answer: 4.34%

Question: What about the Activity [26] of the same compound?
Answer: 0.25%
